Results taken from PubChem BioAssay AID1963873 (Molecular Pharmacology Branch, DTP, NCI, 2024).

Test system: 276233-004-R-J1-PDC KRAS spheroids with HUVEC/MSC, viability
Assay: Anticancer human tumor 276233-004-R-J1-PDC patient-derived colon adenocarcinoma cell line growth inhibition [KRAS2]
Conditions: for IC50: curve of first compound; for viability, T/C: stronger effect = lower value
Summary of the method: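 Combination screen of spheroid viability in tumor-cell co-cultures with endothelial (HUVEC) and mesenchymal stem cell stroma. Each agent was tested in half-log dilutions, topping at clinical Cmax or at 10 microM without a known Cmax.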

[1] = second compound 0.0316 µM, first compound 0.0316 µM
[2] = second compound 0.0316 µM, first compound 0.1 µM
[3] = second compound 0.0316 µM, first compound 0.316 µM
[4] = second compound 0.0316 µM, first compound 1 µM
[5] = second compound 0.0316 µM, first compound 3.16 µM
[6] = second compound 0.1 µM, first compound 0.0316 µM
[7] = second compound 0.1 µM, first compound 0.1 µM
[8] = second compound 0.1 µM, first compound 0.316 µM
[9] = second compound 0.1 µM, first compound 1 µM
[10] = second compound 0.1 µM, first compound 3.16 µM
[11] = second compound 0.316 µM, first compound 0.0316 µM
[12] = second compound 0.316 µM, first compound 0.1 µM
[13] = second compound 0.316 µM, first compound 0.316 µM
[14] = second compound 0.316 µM, first compound 1 µM
[15] = second compound 0.316 µM, first compound 3.16 µM
[16] = second compound 1 µM, first compound 0.0316 µM
[17] = second compound 1 µM, first compound 0.1 µM
[18] = second compound 1 µM, first compound 0.316 µM
[19] = second compound 1 µM, first compound 1 µM
[20] = second compound 1 µM, first compound 3.16 µM
[21] = second compound 3.16 µM, first compound 0.0316 µM
[22] = second compound 3.16 µM, first compound 0.1 µM
[23] = second compound 3.16 µM, first compound 0.316 µM
[24] = second compound 3.16 µM, first compound 1 µM
[25] = second compound 3.16 µM, first compound 3.16 µM
[26] = second compound 0.0316 µM, first compound 10 µM
[27] = second compound 0.1 µM, first compound 10 µM
[28] = second compound 0.316 µM, first compound 10 µM
[29] = second compound 1 µM, first compound 10 µM
[30] = second compound 3.16 µM, first compound 10 µM
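Further: cells exposed to agents for seven days before viability read.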
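Wherever viability, T/C is given: 100% = DMSO vehicle control wells and lower values mean fewer viable cells.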

Structure (SMILES)	IC50 (second compound 0.0316 µM) [µM]	IC50 (second compound 0.1 µM) [µM]	IC50 (second compound 0.316 µM) [µM]	IC50 (second compound 1 µM) [µM]	IC50 (second compound 3.16 µM) [µM]	viability, T/C [1] [%]	viability, T/C [2] [%]	viability, T/C [3] [%]	viability, T/C [4] [%]	viability, T/C [5] [%]	viability, T/C [6] [%]	viability, T/C [7] [%]	viability, T/C [8] [%]	viability, T/C [9] [%]	viability, T/C [10] [%]	viability, T/C [11] [%]	viability, T/C [12] [%]	viability, T/C [13] [%]	viability, T/C [14] [%]	viability, T/C [15] [%]	further results
CC1COCCN1c1cc(-c2ccnn2C)c2ccnc(-c3ccn[nH]3)c2n1 (stereo not given) + C=CC(=O)N1CCN(c2nc(OCC3CCCN3C)nc3c2CCN(c2cccc4cccc(C)c24)C3)CC1CC#N	> 3.16	> 3.16	> 3.16	> 3.16	0.19	92.7	82.4	71.3	67.5	56	95.3	94.6	74.8	59	54.1	96.6	91.5	69.4	59.3	55.6	viability, T/C (second compound 0.0316 µM, first compound 0.01 µM): 100%; viability, T/C (second compound 0.1 µM, first compound 0.01 µM): 111%; viability, T/C (second compound 0.316 µM, first compound 0.01 µM): 106%; viability, T/C (second compound 1 µM, first compound 0.01 µM): 90%; viability, T/C [16]: 90.5%; viability, T/C [17]: 77.8%; viability, T/C [18]: 70.3%; viability, T/C [19]: 64%; viability, T/C [20]: 56.9%; viability, T/C (second compound 3.16 µM, first compound 0.01 µM): 76.2%; viability, T/C [21]: 61%; viability, T/C [22]: 56.8%; viability, T/C [23]: 42.9%; viability, T/C [24]: 45.6%; viability, T/C [25]: 48%
CC1OCC2(CCN(c3cnc(Sc4ccnc(N)c4Cl)c(N)n3)CC2)C1N (stereo not given) + C=CC(=O)N1CCN(c2nc(OCC3CCCN3C)nc3c2CCN(c2cccc4cccc(C)c24)C3)CC1CC#N	> 10	> 10	> 10	9.49	0.521	105	90.5	91.2	85.7	70.2	98.2	85	81.5	69.3	68.7	102	98.7	83.4	76.7	67	viability, T/C [26]: 59.8%; viability, T/C [27]: 56.3%; viability, T/C [28]: 55.3%; viability, T/C [16]: 98.2%; viability, T/C [17]: 84.7%; viability, T/C [18]: 81.2%; viability, T/C [19]: 83.5%; viability, T/C [20]: 63.5%; viability, T/C [29]: 49%; viability, T/C [21]: 69.1%; viability, T/C [22]: 60.4%; viability, T/C [23]: 58.2%; viability, T/C [24]: 39.7%; viability, T/C [25]: 35.9%; viability, T/C [30]: 39%
Cn1nccc1Nc1nccc(-c2cc3c(s2)C(C)(C)N(CCN2CCOCC2)C3=O)n1 + C=CC(=O)N1CCN(c2nc(OCC3CCCN3C)nc3c2CCN(c2cccc4cccc(C)c24)C3)CC1CC#N	4.83	> 10	> 10	> 10	0.236	99.8	108	86.1	75.9	51.7	100	99.3	79.7	75.7	51.7	109	98	101	77.8	56.4	viability, T/C [26]: 44.5%; viability, T/C [27]: 52.2%; viability, T/C [28]: 57.4%; viability, T/C [16]: 101%; viability, T/C [17]: 109%; viability, T/C [18]: 87.2%; viability, T/C [19]: 77%; viability, T/C [20]: 55.3%; viability, T/C [29]: 65.9%; viability, T/C [21]: 68.7%; viability, T/C [22]: 46.7%; viability, T/C [23]: 46.7%; viability, T/C [24]: 47.5%; viability, T/C [25]: 21.2%; viability, T/C [30]: 10.9%
